Results from PMC10536391, “Inhibition of the hERG Potassium Channel by a Methanesulphonate-Free E-4031 Analogue” (Pharmaceuticals, 2023).

How the values were obtained:
Type in all cases: cell-based
[1] = molecular target: T1, hERG potassium channel (human Ether-à-go-go Related Gene) (Homo sapiens, UniProt Q12809, N588K); assay: whole-cell patch-clamp, single concentration […]; details: read-out: % of control tail current at 300 nM
T1 construct: gene KCNH2; N588K hERG transiently expressed in HEK 293 cells

[2] = molecular target: T2, hERG potassium channel (human Ether-à-go-go Related Gene) (Homo sapiens, UniProt Q12809, F557L); assay: whole-cell patch-clamp, single concentration […]; details: read-out: % of control tail current at 300 nM
T2 construct: gene KCNH2; F557L hERG transiently expressed in HEK 293 cells

[3] = molecular target: T3, hERG potassium channel (human Ether-à-go-go Related Gene) (Homo sapiens, UniProt Q12809, T623A); assay: whole-cell patch-clamp, inward tail current in […] K+, […]; details: read-out: % of control tail current at 300 nM
T3 construct: gene KCNH2; T623A hERG transiently expressed in HEK 293 cells

[4] = molecular target: T4, hERG potassium channel (human Ether-à-go-go Related Gene) (Homo sapiens, UniProt Q12809, S624A); assay: whole-cell patch-clamp, single concentration […]; details: read-out: % of control tail current at 300 nM
T4 construct: gene KCNH2; S624A hERG transiently expressed in HEK 293 cells

[5] = molecular target: T5, hERG potassium channel (human Ether-à-go-go Related Gene) (Homo sapiens, UniProt Q12809); assay: whole-cell patch-clamp, hERG tail current, […] °C
T5 construct: gene KCNH2; wild-type hERG stably expressed in HEK 293 cells

Cc1ccc(C(=O)C2CCN(CCc3ccccc3)CC2)cc1 [E-4031-17]
activity at 0.3 µM [1]: 43.2% | activity at 0.3 µM [2]: 57.9% | activity at 0.3 µM [3]: 69.7% | activity at 0.3 µM [4]: 57.2% | IC50 [5]: 40.3 nM
